The target in experiment [1] is DNA damage-inducible transcript 3 protein (Mus musculus, UniProt P35639). The class given is functional, Cricetulus griseus.
Experiment [2] concerns the target T1, Microphthalmia-associated transcription factor (Homo sapiens, UniProt O75030).
T1 sequence (O75030 whole entry): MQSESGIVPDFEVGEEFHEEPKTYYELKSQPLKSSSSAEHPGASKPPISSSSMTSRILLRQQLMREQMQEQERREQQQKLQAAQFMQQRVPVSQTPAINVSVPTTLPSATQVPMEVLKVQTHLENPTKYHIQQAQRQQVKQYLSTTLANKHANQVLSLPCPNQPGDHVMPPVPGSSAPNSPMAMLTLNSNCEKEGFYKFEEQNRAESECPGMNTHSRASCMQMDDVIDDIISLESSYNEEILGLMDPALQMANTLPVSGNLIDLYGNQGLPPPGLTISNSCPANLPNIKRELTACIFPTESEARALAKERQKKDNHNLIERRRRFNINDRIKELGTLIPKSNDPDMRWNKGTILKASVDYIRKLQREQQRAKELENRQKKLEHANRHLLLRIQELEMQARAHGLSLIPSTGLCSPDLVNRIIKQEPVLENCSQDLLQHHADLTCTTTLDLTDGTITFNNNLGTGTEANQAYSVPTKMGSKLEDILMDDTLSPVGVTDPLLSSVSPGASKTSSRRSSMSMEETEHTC
Kind of experiment: TRPM1 promoter luciferase signal decrease, dose response, MITF inhibitor project, cell-based, SK-MEL-5, cherry-picked, set 3 (AID 493073).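 Also: SK-MEL-5 melanoma cells with luciferase driven by the MITF target TRPM1 promoter.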 The class given is functional.

Another experiment addresses Melanocortin receptor 4 (Homo sapiens, UniProt P32245). The class given is functional, cell-based.
Experiment [3] has as its target T2, G-protein coupled receptor 55 (Homo sapiens, UniProt Q9Y2T6). Kind of experiment: GPR55 antagonists blocking LPI-driven arrestin recruitment, primary screen, imaging, U2OS, beta-arrestin-GFP, LPI agonist (AID 2013).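 Also: antagonist potency measured as reduced agonist-driven arrestin aggregation.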 In kind it is functional. Background: Activated receptors often draw arrestin, which recruitment assays turn into a signal.
The target in experiment [4] is T3, Cannabinoid receptor 1 (Homo sapiens, UniProt P21554). Kind of experiment: SAR analysis of antagonists of the Cannabinoid Receptor 1 using an Image-Based Assay - Set 2. [Related pubchem assays (depositor defined):AID2013, AID2026]. In kind it is functional.
For experiment [5], the target named is T4, G-protein coupled receptor 35 (Homo sapiens, UniProt Q9HC97). Kind of experiment: SAR analysis of Agonists of the GPR35 Receptor using an Image-Based Assay - Set 2. [Related pubchem assays (depositor defined):AID2013, AID2026]. In kind it is functional.
The target of experiment [6] is T5, Cannabinoid receptor 2 (Homo sapiens, UniProt P34972). Briefly: SAR analysis of antagonists of the Cannabinoid Receptor 2 using an Image-Based Assay. [Related pubchem assays (depositor defined):AID2013, AID2026]. The class given is functional.
Experiment [7] deals with T3, Cannabinoid receptor 1. Briefly: SAR analysis of agonists of the Cannabinoid Receptor 1 using an Image-Based Assay - Set 2. [Related pubchem assays (depositor defined):AID2013, AID2026]. The class given is functional.
Experiment [8] has as its target T4, G-protein coupled receptor 35. Kind of experiment: SAR analysis of Antagonists of the GPR35 Receptor using an Image-Based Assay - Set 3. [Related pubchem assays (depositor defined):AID2013, AID2026]. The class given is functional.
Experiment [9] has as its target T2, G-protein coupled receptor 55. Kind of experiment: GPR55 antagonist potency of analogs, SAR follow-up, imaging, U2OS, beta-arrestin-GFP, LPI agonist, set 2 (AID 2820). The class given is functional.
For experiment [10], the target named is T5, Cannabinoid receptor 2. Briefly: SAR analysis of agonists of the Cannabinoid Receptor 2 using an Image-Based Assay. [Related pubchem assays (depositor defined):AID2013, AID2026]. The class given is functional.
The test system of another experiment is A-375. Briefly: MITF: Counter assay: A375 proliferation Measured in Cell-Based System Using Plate Reader - 2084-03_Inhibitor_Dose_DryPowder_Activity. [Related pubchem assays (depositor defined):AID488944]. The class given is functional. The settings on record: Homo sapiens.
The next experiment relates to J774.A1. Kind of experiment: Confirmation of image-based Screening Assay for Inhibitors of Phagocytosis. [Related pubchem assays (depositor defined):AID1029, AID1643]. The class given is functional, cell-based. The note with it: Mus musculus.
In experiment [11] the test system is Streptococcus sp. 'group A'. Kind of experiment: growth inhibition of control SK(-) GAS strain, dose response, counter-screen for streptokinase expression inhibitor project, luminescence, kanamycin, BacTiterGlo, confirmation (AID 1900). The class given is functional, organism-based. In general terms: A counterscreen serves to expose hits that act by an unwanted route or on another target.

A further experiment has as its system Streptococcus. Briefly: Group A Streptococcus viability loss, dose response, counter-screen for streptokinase expression inhibitor project, luminescence, BacTiterGlo (AID 1915).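 Also: potency for reduction of bacterial viability or growth.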 In kind it is functional, organism-based.
The next experiment deals with Beta-galactosidase (Escherichia coli, UniProt Q8VNN2). Kind of experiment: beta-galactosidase enzyme inhibitors and activators, dose response, artefact control for CCR6 antagonist project, biochemical, E. coli enzyme, set 3 (AID 504712). The class given is functional.
For the next experiment, the system named is Vero. Briefly: Vero cell cytotoxicity, cytotoxicity control for flavivirus capping enzyme inhibitors (AID 588742). In kind it is functional. The settings on record: Chlorocebus sabaeus.
The next experiment concerns the target Genome polyprotein (dengue virus type 2, UniProt P29990). Kind of experiment: Dengue-2 NS5 methyltransferase inhibitors, primary screen, biochemical, confirmation dose response (AID 588689). The class given is functional.
Experiment [12] has as its target T6, Probable nicotinate-nucleotide adenylyltransferase (Staphylococcus aureus (strain N315), UniProt P65502). In kind it is functional, Staphylococcus aureus subsp. aureus N315.
Experiment [13] has as its target T6, Probable nicotinate-nucleotide adenylyltransferase. In kind it is functional, Staphylococcus aureus subsp. aureus N315. The settings on record: read-out: IC50_Mean.
For experiment [14], the target named is T7, Fatty acid synthase (Homo sapiens, UniProt P49327). Briefly: FAS thioesterase domain inhibitors, dose response, biochemical, endpoint fluorescence intensity, uHTS hits (AID 624327).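 Also: fluorescence from hydrolysis of an O-methyl fluorescein acyl ester substrate by the enzyme.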 In kind it is functional.
Experiment [15] addresses T7, Fatty acid synthase. Briefly: FAS thioesterase domain inhibitors, dose response, biochemical, kinetic fluorescence intensity (AID 624326).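 Also: rate of fluorescence rise from hydrolysis of a fluorogenic O-methyl fluorescein ester substrate.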 The class given is functional.
A further experiment deals with fMet-Leu-Phe receptor (Homo sapiens, UniProt P21462). Kind of experiment: FPR ligands, dose response (AID 519). The class given is functional.
The target in experiment [16] is Peroxisome proliferator-activated receptor gamma/Nuclear receptor coactivator 1 (Homo sapiens, UniProt P37231). Kind of experiment: TR-FRET dose response biochemical High Throughput Screening assay for agonists of the steroid receptor coactivator 1 (SRC-1) recruitment by the peroxisome proliferator-activated receptor gamma (PPAR gamma): non-selective agonists. [Related pubchem assays (depositor defined):AID1300, AID1808, AID504735, AID631]. In kind it is protein assay. (TR-FRET usually uses a lanthanide donor and a delayed reading to cut background.)

For experiment [17], the target named is Peroxisome proliferator-activated receptor gamma/Nuclear receptor coactivator 3 (Homo sapiens, UniProt P37231). Briefly: TR-FRET dose response biochemical High Throughput Screening assay for agonists of the steroid receptor coactivator 3 (SRC-3) recruitment by the peroxisome proliferator-activated receptor gamma (PPAR gamma): non-selective agonists. [Related pubchem assays: 1301 (Confirmation screen.), 1048 (Primary screen.)]. The class given is functional.

In experiment [18] the target is Peroxisome proliferator-activated receptor gamma/Nuclear receptor coactivator 2 (Homo sapiens, UniProt P37231). Kind of experiment: TR-FRET dose response biochemical High Throughput Screening assay for agonists of the steroid receptor coactivator 2 (SRC-2) recruitment by the peroxisome proliferator-activated receptor gamma (PPAR gamma): non-selective agonists. [Related pubchem assays: 1297, 1032 ]. In kind it is functional.

Active and inactive are the calls of the source.
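For IC50 Mean in this document: confirmatory dose-response retesting of NadD inhibitor hits first found in an ultra-high-throughput screen.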

T3 sequence (P21554 whole entry): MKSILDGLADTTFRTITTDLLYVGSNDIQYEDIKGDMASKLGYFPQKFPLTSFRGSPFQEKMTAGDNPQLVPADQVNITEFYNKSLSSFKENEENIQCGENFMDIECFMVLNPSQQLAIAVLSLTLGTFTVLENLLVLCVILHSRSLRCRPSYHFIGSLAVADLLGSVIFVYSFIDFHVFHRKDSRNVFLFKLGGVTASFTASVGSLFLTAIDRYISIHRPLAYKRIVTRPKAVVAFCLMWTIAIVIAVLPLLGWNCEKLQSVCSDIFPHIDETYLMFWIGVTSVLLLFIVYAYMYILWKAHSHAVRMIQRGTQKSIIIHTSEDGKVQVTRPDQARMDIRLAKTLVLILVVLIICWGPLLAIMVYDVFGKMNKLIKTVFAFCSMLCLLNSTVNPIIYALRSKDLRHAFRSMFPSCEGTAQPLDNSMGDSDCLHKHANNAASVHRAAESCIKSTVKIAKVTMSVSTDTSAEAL
T6 sequence (P65502 whole entry): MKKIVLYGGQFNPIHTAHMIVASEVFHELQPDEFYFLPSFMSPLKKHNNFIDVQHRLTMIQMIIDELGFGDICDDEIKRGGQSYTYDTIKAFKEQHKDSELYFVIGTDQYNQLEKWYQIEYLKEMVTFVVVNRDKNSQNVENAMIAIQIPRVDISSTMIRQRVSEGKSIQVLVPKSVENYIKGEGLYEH
T7 sequence (P49327 whole entry, the tested form may be a part): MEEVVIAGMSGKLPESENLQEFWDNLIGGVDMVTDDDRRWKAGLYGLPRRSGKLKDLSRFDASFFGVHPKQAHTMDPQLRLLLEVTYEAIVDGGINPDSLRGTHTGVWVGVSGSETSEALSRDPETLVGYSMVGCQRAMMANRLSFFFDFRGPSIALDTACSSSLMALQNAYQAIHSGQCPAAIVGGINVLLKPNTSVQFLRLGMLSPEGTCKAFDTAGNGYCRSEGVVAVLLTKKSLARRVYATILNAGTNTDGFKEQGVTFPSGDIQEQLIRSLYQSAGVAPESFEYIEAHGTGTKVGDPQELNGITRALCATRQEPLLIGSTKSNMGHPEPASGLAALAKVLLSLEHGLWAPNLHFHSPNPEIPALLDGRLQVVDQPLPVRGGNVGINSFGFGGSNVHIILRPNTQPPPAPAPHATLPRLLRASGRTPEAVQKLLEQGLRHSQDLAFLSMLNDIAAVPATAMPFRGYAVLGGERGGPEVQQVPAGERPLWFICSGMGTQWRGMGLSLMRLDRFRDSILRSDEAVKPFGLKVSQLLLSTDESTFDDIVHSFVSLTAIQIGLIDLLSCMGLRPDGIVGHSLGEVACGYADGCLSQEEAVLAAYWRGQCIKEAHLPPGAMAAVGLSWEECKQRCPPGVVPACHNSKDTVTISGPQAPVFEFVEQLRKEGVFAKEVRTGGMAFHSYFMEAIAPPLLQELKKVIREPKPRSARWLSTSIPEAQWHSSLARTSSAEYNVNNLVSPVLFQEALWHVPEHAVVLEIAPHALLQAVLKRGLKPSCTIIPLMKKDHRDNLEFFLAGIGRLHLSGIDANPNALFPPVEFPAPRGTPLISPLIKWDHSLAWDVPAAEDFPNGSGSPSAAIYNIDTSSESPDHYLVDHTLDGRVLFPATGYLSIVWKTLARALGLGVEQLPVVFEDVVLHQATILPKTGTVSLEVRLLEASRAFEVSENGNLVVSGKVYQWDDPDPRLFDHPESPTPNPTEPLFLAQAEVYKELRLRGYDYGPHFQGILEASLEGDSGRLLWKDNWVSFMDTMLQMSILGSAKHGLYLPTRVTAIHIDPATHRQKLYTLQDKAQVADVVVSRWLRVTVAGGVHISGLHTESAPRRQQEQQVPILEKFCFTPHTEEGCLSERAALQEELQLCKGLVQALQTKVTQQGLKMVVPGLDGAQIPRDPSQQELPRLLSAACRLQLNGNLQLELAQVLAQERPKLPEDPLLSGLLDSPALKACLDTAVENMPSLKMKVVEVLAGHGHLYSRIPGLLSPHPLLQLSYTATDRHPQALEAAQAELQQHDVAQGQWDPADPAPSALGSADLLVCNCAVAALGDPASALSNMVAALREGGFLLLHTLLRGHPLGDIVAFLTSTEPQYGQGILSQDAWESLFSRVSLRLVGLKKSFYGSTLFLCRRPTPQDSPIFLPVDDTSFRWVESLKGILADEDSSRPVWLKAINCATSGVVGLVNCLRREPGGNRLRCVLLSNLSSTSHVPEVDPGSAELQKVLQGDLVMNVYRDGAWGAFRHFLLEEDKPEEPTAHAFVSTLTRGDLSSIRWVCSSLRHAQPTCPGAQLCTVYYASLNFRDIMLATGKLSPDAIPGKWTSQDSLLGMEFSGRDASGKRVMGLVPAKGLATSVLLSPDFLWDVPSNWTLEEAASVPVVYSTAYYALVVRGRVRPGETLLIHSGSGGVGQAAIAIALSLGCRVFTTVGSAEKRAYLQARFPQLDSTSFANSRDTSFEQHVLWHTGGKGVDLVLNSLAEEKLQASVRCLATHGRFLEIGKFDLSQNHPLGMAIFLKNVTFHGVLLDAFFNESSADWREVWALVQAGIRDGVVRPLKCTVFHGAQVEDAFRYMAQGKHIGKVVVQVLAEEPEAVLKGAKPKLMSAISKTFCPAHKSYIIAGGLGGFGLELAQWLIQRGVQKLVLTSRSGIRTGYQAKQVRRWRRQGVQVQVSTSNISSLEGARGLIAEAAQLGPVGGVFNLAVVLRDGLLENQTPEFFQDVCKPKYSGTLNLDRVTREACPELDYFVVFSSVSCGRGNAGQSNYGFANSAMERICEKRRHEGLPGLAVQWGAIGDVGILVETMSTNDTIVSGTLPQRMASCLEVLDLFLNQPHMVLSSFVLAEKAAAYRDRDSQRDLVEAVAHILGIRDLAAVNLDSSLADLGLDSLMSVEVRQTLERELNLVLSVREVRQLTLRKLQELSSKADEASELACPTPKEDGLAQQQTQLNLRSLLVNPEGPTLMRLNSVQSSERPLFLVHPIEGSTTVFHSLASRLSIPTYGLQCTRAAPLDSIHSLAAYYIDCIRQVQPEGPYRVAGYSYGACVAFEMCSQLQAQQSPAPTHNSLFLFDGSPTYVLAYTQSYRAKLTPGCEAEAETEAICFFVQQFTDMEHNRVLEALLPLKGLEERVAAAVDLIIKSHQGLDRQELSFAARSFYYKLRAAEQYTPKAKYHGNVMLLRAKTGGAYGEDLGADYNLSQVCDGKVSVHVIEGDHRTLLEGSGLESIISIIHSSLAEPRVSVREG
T5 sequence (P34972 whole entry): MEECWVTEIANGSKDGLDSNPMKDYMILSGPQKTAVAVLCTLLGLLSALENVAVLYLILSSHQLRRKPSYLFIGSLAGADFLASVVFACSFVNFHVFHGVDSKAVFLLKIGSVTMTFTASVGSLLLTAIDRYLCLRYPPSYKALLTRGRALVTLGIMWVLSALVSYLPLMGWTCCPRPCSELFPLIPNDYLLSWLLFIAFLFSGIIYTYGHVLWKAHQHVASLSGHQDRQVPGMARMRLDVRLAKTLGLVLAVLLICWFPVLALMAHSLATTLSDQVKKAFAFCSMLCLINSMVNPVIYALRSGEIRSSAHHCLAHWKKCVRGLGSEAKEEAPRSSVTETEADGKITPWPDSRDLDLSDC
T2 sequence (Q9Y2T6 whole entry): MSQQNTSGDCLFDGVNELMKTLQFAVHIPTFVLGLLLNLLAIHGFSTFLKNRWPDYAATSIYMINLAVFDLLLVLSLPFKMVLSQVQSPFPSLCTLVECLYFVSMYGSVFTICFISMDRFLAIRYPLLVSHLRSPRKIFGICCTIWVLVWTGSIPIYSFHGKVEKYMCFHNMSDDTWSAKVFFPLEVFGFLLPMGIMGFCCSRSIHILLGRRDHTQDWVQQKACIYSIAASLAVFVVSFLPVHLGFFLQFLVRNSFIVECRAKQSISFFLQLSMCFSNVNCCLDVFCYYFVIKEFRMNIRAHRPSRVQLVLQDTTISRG
T4 sequence (Q9HC97 whole entry): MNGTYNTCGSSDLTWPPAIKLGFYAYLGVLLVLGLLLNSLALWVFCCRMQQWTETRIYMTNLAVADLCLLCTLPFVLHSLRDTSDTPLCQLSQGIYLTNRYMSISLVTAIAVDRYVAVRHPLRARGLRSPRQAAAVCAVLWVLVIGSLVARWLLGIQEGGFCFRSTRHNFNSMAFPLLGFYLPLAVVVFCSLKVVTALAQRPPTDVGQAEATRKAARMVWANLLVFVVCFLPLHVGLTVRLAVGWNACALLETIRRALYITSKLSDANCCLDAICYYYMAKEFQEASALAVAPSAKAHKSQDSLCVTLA
fMet-Leu-Phe receptor, sequence (P21462 whole entry): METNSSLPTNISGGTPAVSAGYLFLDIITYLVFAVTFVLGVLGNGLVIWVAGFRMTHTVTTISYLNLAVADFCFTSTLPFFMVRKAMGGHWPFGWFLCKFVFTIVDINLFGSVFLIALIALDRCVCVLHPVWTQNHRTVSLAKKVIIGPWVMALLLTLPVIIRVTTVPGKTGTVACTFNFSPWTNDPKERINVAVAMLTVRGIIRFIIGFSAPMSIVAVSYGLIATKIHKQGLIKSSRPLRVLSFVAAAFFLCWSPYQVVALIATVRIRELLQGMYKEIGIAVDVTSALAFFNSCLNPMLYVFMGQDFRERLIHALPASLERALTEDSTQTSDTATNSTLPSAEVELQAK
DNA damage-inducible transcript 3 protein, sequence (P35639 whole entry): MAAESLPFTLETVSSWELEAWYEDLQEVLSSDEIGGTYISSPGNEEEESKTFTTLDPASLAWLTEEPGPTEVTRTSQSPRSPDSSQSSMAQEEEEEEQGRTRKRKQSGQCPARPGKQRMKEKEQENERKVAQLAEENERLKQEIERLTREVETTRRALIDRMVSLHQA
Melanocortin receptor 4, sequence (P32245 whole entry): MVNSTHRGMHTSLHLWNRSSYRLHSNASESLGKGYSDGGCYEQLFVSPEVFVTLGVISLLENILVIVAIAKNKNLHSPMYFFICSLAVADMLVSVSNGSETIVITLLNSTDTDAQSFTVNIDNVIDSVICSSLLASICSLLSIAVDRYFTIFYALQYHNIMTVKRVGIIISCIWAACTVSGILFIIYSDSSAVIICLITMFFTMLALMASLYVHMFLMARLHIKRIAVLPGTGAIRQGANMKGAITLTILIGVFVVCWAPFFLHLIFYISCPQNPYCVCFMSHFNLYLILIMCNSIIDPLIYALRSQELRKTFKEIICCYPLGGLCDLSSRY

The AC50 is the concentration at which the activity in the assay is half-maximal. A word on the EC50: it is the concentration at which the effect is half-maximal. For `COc1cc(NC(=O)COc2ccccc2[N+](=O)[O-])ccc1NC(=O)c1cccs1`, the “Absolute IC50 (CHOP)” value in [1] is 10 µM. Further, the AC50 in experiment [2] was 10.1 µM (active). In addition, the EC50 on Melanocortin receptor 4 is > 89.2 µM (inactive).

As to `COc1ccc(CNCCC(c2ccc(F)cc2)c2ccc(OC)cc2)cc1` (configuration not stated), the IC50 was 1.78 µM (active) in experiment [3]; 2.7 µM (active) on Cannabinoid receptor 1 [4]; 24.2 µM (inactive) on Cannabinoid receptor 2 [6]; > 32 µM (inactive) in experiment [8]; 1.69 µM (active) in experiment [9]. Moreover, the EC50 was 23.1 µM (inactive) in [5], > 32 µM (inactive) on Cannabinoid receptor 1 [7] and > 32 µM (inactive) on Cannabinoid receptor 2 [10]. For the same compound, the AC50 in [2] is 9.89 µM (active); in the experiment on A-375, 16.3 µM (active).

`Cn1cc(C=Nn2cnc3scc(-c4ccc(Cl)cc4)c3c2=O)c2ccccc21`: the IC50 in the experiment with J774.A1 is < 0.05 µM (inactive).

By CC50 is commonly meant the concentration giving 50% cytotoxicity. The term Ki denotes a dissociation constant, usually derived from enzyme kinetics or from competition with a known ligand. Take `Cc1nn2c(O)cc(-c3ccc([N+](=O)[O-])cc3)nc2c1-c1ccccc1`: the EC50 is 0.662 µM (active) in experiment [11] and 1.44 µM (active) with Streptococcus. The IC50 is > 66.6 µM (inactive) on Beta-galactosidase; 36.5 µM (active) on Genome polyprotein; 8.02 µM (active) in experiment [12]; 30.2 µM (active) in [13]; 11.2 µM (active) on Fatty acid synthase [14]; 6.29 µM (active) on Fatty acid synthase [15]. The CC50 in the experiment on Vero was 29.6 µM (active). In addition, at fMet-Leu-Phe receptor, the Ki is > 66.7 µM (inactive).

Consider `COc1ccc2c(c1)nc(SCC(=O)c1ccc(Br)s1)n2C`, for which the EC50 is > 79.4 µM (inactive) in experiment [16], > 79.4 µM (not active) in experiment [17] and 27.7 µM (not active) in [18].
